Reference: article PMC12123601, “Light-Induced, Lysine-Targeting Irreversible Covalent Inhibition of the Human Oxygen Sensing Hydroxylase Factor Inhibiting HIF (FIH)” (Journal of the American Chemical Society, 2025)
Read-outs that look alike come from different tables or passages of the source.

Columns and labels:
[1] = molecular target: T1, FIH^K106A (Homo sapiens, UniProt Q9NWT6, K106A); assay: Affinity-based fluorescence polarization (FP) assay with the FIH K106A variant, without and with irradiation; assay type: binding; conditions: read-out: Binding affinity to FIH^K106A: Ki
T1 construct: encoding for full-length FIH with an N-terminal His6 tag or for FIH (K106A) with an N-terminal His6 tag; His6 (N); host or cells: Escherichia coli BL21
Source text: (§1) 4 (A) Light-induced click conjugation between NBA-ZG-2291 and FIH protein. (B) Light-induced binding affinity of NBA-ZG-2291 to FIH^ WT . (C) Light-induced binding affinity of NBA-ZG-2291 to FIH^ K106A . […] TEXT PRINTED IN THE PICTURE: (B) NBA-ZG-2291: Binding affinity to FIH^WT: Ki (nM): 414 ± 14 (Irradtion time (min): 0); Binding affinity to FIH^WT: Ki (nM): 74.1 ± 1.6 (Irradtion time (min): 15); Binding affinity to FIH^WT: Ki (nM): 46.7 ± 1.4 (Irradtion time (min): 30); Binding affinity to FIH^WT: Ki (nM): 33.2 ± 0.6 (Irradtion time (min): 60); Binding affinity to FIH^WT: Ki (nM): 30.2 ± 2.0 (Irradtion time (min): 90); Binding affinity to FIH^WT: Ki (nM): 32.1 ± 0.7 (Irradtion time (min): 120) | (B) Neg-1: Binding affinity to FIH^WT: Ki (nM): 423 ± 7 (Irradtion time (min): 0); Binding affinity to FIH^WT: Ki (nM): 408 ± 30 (Irradtion time (min): 15); Binding affinity to FIH^WT: Ki (nM): 459 ± 32 (Irradtion time (min): 30); Binding affinity to FIH^WT: Ki (nM): 427 ± 17 (Irradtion time (min): 60); Binding affinity to FIH^WT: Ki (nM): 396 ± 29 (Irradtion time (min): 90); Binding affinity to FIH^WT: Ki (nM): 428 ± 15 (Irradtion time (min): 120) | (B) Neg-2: Binding affinity to FIH^WT: Ki (nM): 742 ± 65 (Irradtion time (min): 0); Binding affinity to FIH^WT: Ki (nM): 799 ± 69 (Irradtion time (min): 15); Binding affinity to FIH^WT: Ki (nM): 758 ± 13 (Irradtion time (min): 30); Binding affinity to FIH^WT: Ki (nM): 744 ± 30 (Irradtion time (min): 60); Binding affinity to FIH^WT: Ki (nM): 788 ± 36 (Irradtion time (min): 90); Binding affinity to FIH^WT: Ki (nM): 786 ± 35 (Irradtion time (min): 120) | (C) NBA-ZG-2291: Binding affinity to FIH^K106A: Ki (nM): 442 ± 12 (Irradtion time (min): 0); Binding affinity to FIH^K106A: Ki (nM): 427 ± 22 (Irradtion time (min): 15); Binding affinity to FIH^K106A: Ki (nM): 426 ± 7 (Irradtion time (min): 30); Binding affinity to FIH^K106A: Ki (nM): 420 ± 11 (Irradtion time (min): 60); Binding affinity to FIH^K106A: Ki (nM): 418 ± 5 (Irradtion time (min): 90); Binding affinity to FIH^K106A: Ki (nM): 424 ± 12 (Irradtion time (min): 120) | (C) Neg-1: Binding affinity to FIH^K106A: Ki (nM): 271 ± 14 (Irradtion time (min): 0); Binding affinity to FIH^K106A: Ki (nM): 275 ± 15 (Irradtion time (min): 15); Binding affinity to FIH^K106A: Ki (nM): 268 ± 25 (Irradtion time (min): 30); Binding affinity to FIH^K106A: Ki (nM): 266 ± 22 (Irradtion time (min): 60); Binding affinity to FIH^K106A: Ki (nM): 264 ± 41 (Irradtion time (min): 90); Binding affinity to FIH^K106A: Ki (nM): 270 ± 3 (Irradtion time (min): 120) | (C) Neg-2: Binding affinity to FIH^K106A: Ki (nM): 567 ± 37 (Irradtion time (min): 0); Binding affinity to FIH^K106A: Ki (nM): 548 ± 61 (Irradtion time (min): 15); Binding affinity to FIH^K106A: Ki (nM): 521 ± 50 (Irradtion time (min): 30); Binding affinity to FIH^K106A: Ki (nM): 627 ± 17 (Irradtion time (min): 60); Binding affinity to FIH^K106A: Ki (nM): 565 ± 10 (Irradtion time (min): 90); Binding affinity to FIH^K106A: Ki (nM): 552 ± 38 (Irradtion time (min): 120) […]
To further verify the covalent binding between NBA-ZG-2291 and Lys106, the FIH^ K106A variant was produced and purified.
(§2) 3. Experimental procedures
(§3) 3.1 Fluorescence polarization (FP) assays1 with FIHWT and FIHK106A pET28a vectors encoding for full-length FIH with an N-terminal His6 tag or for FIH (K106A) with an N-terminal His6 tag were purchased from Nanjing Zoonbio Biotechnology. Both the FIHWT and FIHK106A protein were expressed from the respective plasmid in Escherichia coli BL21 at 20 °C for 16 h. E. coli cells were lysed and the lysate were clarified by centrifugation. His6-tagged FIHWT or FIHK106A was purified on a HisTrap affinity column (GE Healthcare) by elution with an imidazole gradient. The final purified proteins were stored in PBS buffer.
FP assays were carried out using 384 -well plates (#3575, Corning); the polarization signal was measured using a SPARK Multi-Mode Microplate Reader (Tecan). […]

[2] = molecular target: T2, FIH^WT (Homo sapiens, UniProt Q9NWT6); assay: Affinity-based fluorescence polarization (FP) assay with FIH WT, without and with 365 nm irradiation; conditions: read-out: Binding affinity to FIH^WT: Ki
T2 construct: pET28a vectors encoding for full-length FIH with an N-terminal His6 tag; His6 (N); host or cells: Escherichia coli BL21
Source text: We also performed a reported affinity-based fluorescence polarization (FP) assay (Figure S6) , under light activation to measure the binding affinity of NBA-ZG-2291 to FIH (Figure A). […] These observations are consistent with the intact protein MS analyzes. We also evaluated the binding affinities of two negative controls to FIH, which were designed not to covalently react with Lys106.
as §1, §2
as §3, with “His6- […]” for “His6-tagged FIHWT or FIHK106A was purified on a HisTrap affinity column (GE Healthcare) by elution with an imidazole gradient. The final purified proteins were stored in PBS buffer.”

T1 sequence (Q9NWT6 whole entry K106A): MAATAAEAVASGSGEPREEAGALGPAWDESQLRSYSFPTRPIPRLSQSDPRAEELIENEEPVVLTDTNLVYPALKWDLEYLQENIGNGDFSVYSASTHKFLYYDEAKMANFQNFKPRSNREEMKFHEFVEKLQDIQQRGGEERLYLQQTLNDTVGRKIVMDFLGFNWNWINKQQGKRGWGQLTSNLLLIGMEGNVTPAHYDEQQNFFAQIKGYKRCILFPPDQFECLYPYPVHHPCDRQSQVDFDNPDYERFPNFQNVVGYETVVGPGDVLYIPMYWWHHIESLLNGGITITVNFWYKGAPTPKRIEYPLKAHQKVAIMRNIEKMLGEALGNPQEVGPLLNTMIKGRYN
T2 sequence (Q9NWT6 whole entry): as the sequence (Q9NWT6 whole entry K106A) above, with A106K counted along it

Row | Ki ([1]; irradiation time 0 min) | Ki ([1]; irradiation time 15 min) | Ki ([1]; irradiation time 30 min) | Ki ([1]; irradiation time 60 min) | Ki ([1]; irradiation time 90 min) | Ki ([1]; irradiation time 120 min) | Ki ([2]; irradiation time 0 min) | Ki ([2]; irradiation time 15 min) | Ki ([2]; irradiation time 30 min) | Ki ([2]; irradiation time 60 min) | Ki ([2]; irradiation time 90 min) | Ki ([2]; irradiation time 120 min) | SMILES
1 | 567 ± 37 nM | 548 ± 61 nM | 521 ± 50 nM | 627 ± 17 nM | 565 ± 10 nM | 552 ± 38 nM | 742 ± 65 nM | 799 ± 69 nM | 758 ± 13 nM | 744 ± 30 nM | 788 ± 36 nM | 786 ± 35 nM | O=C(O)CNC(=O)c1ncc(-c2cc(-c3ccc(CO)cc3)no2)cc1O [Neg-2]
2 | 271 ± 14 nM | 275 ± 15 nM | 268 ± 25 nM | 266 ± 22 nM | 264 ± 41 nM | 270 ± 3 nM | 423 ± 7 nM | 408 ± 30 nM | 459 ± 32 nM | 427 ± 17 nM | 396 ± 29 nM | 428 ± 15 nM | O=C(O)CNC(=O)c1ncc(-c2cc(-c3cccc([N+](=O)[O-])c3)no2)cc1O [Neg-1]
